Results on three molecules are retold here after patent US5236899A (Merck & Co., Inc., priority 1991, dated 1993).

SMILES strings stand for the structures.

A short description of data set [1]: Nephrotoxicity in an in vivo mouse model. The following applies: result in words.
For data set [2], the system named is MDR CHO cells (multidrug-resistant). In words: Doxorubicin growth inhibition, methylene blue staining method, multidrug-resistant cells. The class given is cell-based, Chinese hamster. The conditions noted are these: Cricetulus griseus, doxorubicin only, about 72 hours continuous exposure. From the text: Multidrug-resistant cells lines are easily obtainable for in vitro determination of drug sensitization by compounds of the present invention, as well as other compounds with similar activity. These cell lines include NIH-OVCAR-3 (ATCC HTB161)., which is commercially available. Other cell lines can be readily developed in accordance with the methods described by Twentyman et al., Br. J. Cancer, 54, 253 (1986). This procedure selects for multidrug-resistant cells by culturing the parental drug sensitive cell line in the continued presence of a cytotoxic drug, for example, doxorubicin.
Drug sensitive cells will perish while multidrug-resistant cells will survive and grow despite the presence of the drug. Eventually, a multidrug-resistant cell population emerges and can be used in an assay system for the detection of agents which can modify the multidrug-resistance. Many cell lines are suitable as parental cell lines from which multidrug-resistant cells can be selected. […]
Equal numbers of cells of an anchorage dependent mammalian cell line are seeded in growth medium (e.g. alpha MEM plus 10% FBS) into a suitable culture vessel, e.g. plastic 96 well tissue culture plates. […] The amount of methylene blue dye in the wells can be measured spectrophotometrically by measuring absorbance at 600 nm using an electronic ELISA plate spectrophotmeter (Minireader II, Dynatech Laboratories, Alexandria, VA). […]

In data set [3] the test system is Parental CHO cells (Drug Sensitive). In words: Doxorubicin growth inhibition, methylene blue staining method, parental drug-sensitive cells. It is filed as cell-based, Chinese hamster. The conditions noted are these: Cricetulus griseus, doxorubicin only, about 72 hours continuous exposure. The method, then: Equal numbers of cells of an anchorage dependent mammalian cell line are seeded in growth medium (e.g. alpha MEM plus 10% FBS) into a suitable culture vessel, e.g. plastic 96 well tissue culture plates. A cytotoxic drug (e.g. doxorubicin) is added to the cells in the dishes at various concentrations ranging between 0 and 100 uM. Following about 72 hours of continuous exposure to the cytotoxic agent, the growth medium is decanted and the cells are washed with a suitable buffer, e.g. phosphate buffered saline (PBS). About 2 ml of a solution of 2% methylene blue (dissolve methylene blue in a solution of about 50% ethanol in water) is added to the cells on the dishes. The dye is allowed to contact the cells for about 2 minutes. Excess dye is washed away with cold water and the plates are air dried. The dye stained cells are then solubilized by adding an equal volume to all wells of a solution of a detergent, e.g. 1% N-lauroyl-sarcosine. The amount of dye remaining in the wells directly correlates witht he number of cells in the well. The amount of methylene blue dye in the wells can be measured spectrophotometrically by measuring absorbance at 600 nm using an electronic ELISA plate spectrophotmeter (Minireader II, Dynatech Laboratories, Alexandria, VA). […]

As to `C/C=C/C[C@@H](C)[C@@H](O)[C@H]1C(=O)N[C@@H](CC)C(=O)N(C)CC(=O)N(C)[C@@H](CC(C)C)C(=O)N[C@@H](C(C)C)C(=O)N(C)[C@@H](CC)C(=O)N[C@@H](C)C(=O)N[C@H](C)C(=O)N(C)[C@@H](CC(C)C)C(=O)N(C)[C@@H](CC(C)C)C(=O)N(C)[C@@H](C(C)C)C(=O)N1C` [6-MeAbu], the Nephrotoxicity result in data set [1] was “lack the nephrotoxic side effects”.
The term IC50 denotes the midpoint of a concentration-inhibition curve. Regarding `COc1cccc2c1C(=O)c1c(O)c3c(c(O)c1C2=O)C[C@@](O)(C(=O)CO)C[C@@H]3O[C@H]1C[C@H](N)[C@H](O)[C@H](C)O1` [Doxorubicin, doxorubicin], the values for the IC50 in data set [2] and in data set [3] were 11.3 ± 0.51 µM and 0.17 ± 0.01 µM, respectively.
Turning to `C/C=C/C[C@@H](C)[C@@H](O)[C@H]1C(=O)N[C@@H](CC)C(=O)N(C)CC(=O)N(C)[C@@H](CC(C)C)C(=O)N[C@@H](C(C)C)C(=O)N(C)[C@@H](C)C(=O)N[C@@H](C)C(=O)N[C@H](C)C(=O)N(C)[C@@H](CC(C)C)C(=O)N(C)[C@@H](CC(C)C)C(=O)N(C)[C@@H](C(C)C)C(=O)N1C` [6-MeAla, Cyclo[-((2S,3R,4R,6E)-3-Hydroxy-4-methyl-2-methylamino-6-octenoyl)-L-2-aminobutyryl-sarcosyl-N-methyl-L-leucyl-Valyl-N-methyl-L-alanyl-L-alanyl-D-alanyl-N-methyl-L-leucyl-N-methyl-L-leucyl-N-methyl-L-valyl]], the Nephrotoxicity entry in data set [1] is “lack the nephrotoxic side effects”.
